The source of these data is patent US10125135B2, “Chemical compounds” (AstraZeneca AB, priority 2016, dated 2018).

The target of data set [1] is ERα receptor in MCF-7 human ductal carcinoma breast cell line (Homo sapiens (Human), UniProt P03372). Briefly: MCF-7 ER down regulation assay (immuno-fluorescence). As to conditions: MCF-7 cells; for DC50: 18-22 hours incubation, read-out: ER down regulation IC50 value; for % downregulation (in brackets) in ER down regulation assay: >90% unless otherwise stated. Type of data set: cell-based. The procedure: MCF-7 ER Down Regulation Assay
Chain of ERα receptor in MCF-7 human ductal carcinoma breast cell line (P03372 whole entry): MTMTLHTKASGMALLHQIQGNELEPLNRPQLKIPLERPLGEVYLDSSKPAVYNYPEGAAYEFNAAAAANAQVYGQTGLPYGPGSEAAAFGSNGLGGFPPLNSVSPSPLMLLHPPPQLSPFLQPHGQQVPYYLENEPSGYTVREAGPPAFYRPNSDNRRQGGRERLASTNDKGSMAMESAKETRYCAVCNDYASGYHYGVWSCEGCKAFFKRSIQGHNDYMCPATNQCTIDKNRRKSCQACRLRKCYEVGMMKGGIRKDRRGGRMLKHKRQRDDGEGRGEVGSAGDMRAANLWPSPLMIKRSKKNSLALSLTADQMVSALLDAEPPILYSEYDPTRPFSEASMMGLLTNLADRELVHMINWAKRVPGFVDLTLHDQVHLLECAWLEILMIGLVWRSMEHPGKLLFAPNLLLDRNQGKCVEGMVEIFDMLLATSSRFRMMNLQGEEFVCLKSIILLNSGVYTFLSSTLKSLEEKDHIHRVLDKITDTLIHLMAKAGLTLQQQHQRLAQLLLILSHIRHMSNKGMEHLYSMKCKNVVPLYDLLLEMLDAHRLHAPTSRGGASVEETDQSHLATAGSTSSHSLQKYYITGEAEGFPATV
The ability of compounds to down-regulate Estrogen Receptor (ER) numbers was assessed in a cell based immuno-fluorescence assay using the MCF-7 human ductal carcinoma breast cell line. MCF-7 cells were revived directly from a cryovial (approx 5×10^6 cells) in Assay Medium (phenol red free Dulbecco's Modified Eagle's medium (DMEM) (Sigma D5921) containing 2mM L-Glutamine and 5% (v/v) Charcoal/Dextran treated foetal calf serum. Cells were syringed once using a sterile 18 G×1.5 inch (1.2×40 mm) broad gauge needle and cell density was measured using a Coulter Counter (Beckman). Cells were further diluted in Assay Medium to a density of 3.75×10^4 cells per mL and 40 μL per well added to transparent bottomed, black, tissue culture treated 384 well plates (Costar, No. 3712) using a Thermo Scientific Matrix WellMate or Thermo Multidrop. Following cell seeding, plates were incubated overnight at 37° C., 5% CO2 (Liconic carousel incubator). Test data was generated using the LabCyte Echo™ model 555 compound reformatter which is part of an automated workcell (Integrated Echo 2 workcell). 10 mM compound stock solutions of the test compounds were used to generate a 384 well compound dosing plate (Labcyte P-05525-CV1). […] 40 μΛ of DMSO added to wells in row P on the source plate allow for DMSO normalisation across the dose range. To dose the control wells 40 μL of DMSO was added to row O1 and 40 μL of 100 μM fulvestrant in DMSO was added to row O3 on the compound source plate. […] Compounds were dispensed onto the cell plates with a compound source plate prepared as above producing a 12 pt duplicate 3 μM to 3 pM dose range with 3 fold dilutions and one final 10 fold dilution using the Integrated Echo 2 workcell. […] Cells were fixed at room temperature for 20 mins before being washed two times with 250 μL PBS/Proclin (PBS with a Biocide preservative) using a BioTek platewasher, 40 μL of PBS/Proclin was then added to all wells and the plates stored at 4° C. The fixing method described above was carried out on the Integrated Echo 2 workcell. Immunostaining was performed using an automated AutoElisa workcell. The PBS/Proclin was aspirated from all wells and the cells permeabilised with 40 μL PBS containing 0.5% Tween™ 20 (v/v) for 1 hour at room temperature. The plates were washed three times in 250 μL of PBS/0.05% (v/v) Tween 20 with Proclin (PBST with a Biocide preservative) and then 20 μL of ERα (SP1) Rabbit monoclonal antibody (Thermofisher) 1:1000 in PBS/Tween™/3% (w/v) Bovine Serum Albumin was added. The plates were incubated overnight at 4° C. (Liconic carousel incubator) and then washed three times in 250 μL of PBS/0.05% (v/v) Tween™ 20 with Proclin (PBST). The plates were then incubated with 20 μL/well of a goat anti-rabbit IgG AlexaFluor 594 or goat anti-rabbit AlexaFluor 488 antibody (Molecular Probes) with Hoechst at 1:5000 in PBS/Tween™/3% (w/v) Bovine Serum Albumin for lhour at room temperature. The plates were then washed three times in 250 μL of PBS/0.05% (v/v) Tween™ 20 with Proclin (PBST with a Biocide preservative). 20 μL of PBS was added to each well and the plates covered with a black plate seal and stored at 4° C. before being read. Plates were read using a Cellomics Arrayscan reading the 594 nm (24 hr time point) or 488 nm (5 hr timepoint) fluorescence to measure the ERα receptor level in each well. The mean total intensity was normalized for cell number giving the total intensity per cell.

Data set [2] can be described thus: Human hepatocyte assay (metabolic stability). The data set is classed as in vitro ADME. The conditions noted are these: human hepatocytes, 37° C., 1.0×10^6 viable cells/mL; read-out: Clint (in vitro intrinsic clearance). The protocol: The metabolic stability of compounds in human hepatocytes was assessed using the following protocol: • 1. Prepare 10 mM stock solutions of compound and control compounds in appropriate solvent (DMSO). Place incubation medium (L-15Medium) in a 37° C. water bath, and allow warming for at least 15 minutes prior to use. • 2. Add 80 μL of acetonitrile to each well of the 96-well deep well plate (quenching plate). • 3. In a new 96-well plate, dilute the 10 mM test compounds and the control compounds to 100 μM by combining 198 μL of acetonitrile and 2 μL of 10 mM stock. • 4. Remove a vial of cryopreserved (less than −150° C.) human hepatocytes (LiverPool™ 10 Donor Human hepatocytes obtained from Celsis IVT. Chicago, Ill. (Product No. S01205)) from storage, ensuring that vials remain at cryogenic temperatures until thawing process ensues. As quickly as possible, thaw the cells by placing the vial in a 37° C. water bath and gently shaking the vials. Vials should remain in water bath until all ice crystals have dissolved and are no longer visible. After thawing is completed, spray vial with 70% ethanol, transfer the vial to a bio-safety cabinet. • 5. Open the vial and pour the contents into the 50 mL conical tube containing thawing medium. Place the 50 mL conical tube into a centrifuge and spin at 100 g for 10 minutes. […] Using Cellometer® Vision, count cells and determine the viable cell density. Cells with poor viability (<80% viability) are not acceptable for use. Dilute cells with incubation medium to a working cell density of 1.0×10^6 viable cells/mL. • 7. Transfer 247.5 μL of hepatocytes into each well of a 96-well cell culture plate. Place the plate on Eppendorf Thermomixer Comfort plate shaker to allow the hepatocytes to warm for 10 minutes. • 8. Add 2.5 μL of 100 μM test compound or control compounds into an incubation well containing cells, mix to achieve a homogenous suspension at 0.5 min, which when achieved, will define the 0.5 min time point. At the 0.5 min time, transfer 20 μL incubated mixture to wells in a “Quenching plate” followed by vortexing. • 9. Incubate the plate at 37° C. at 900 rpm on an Eppendorf Thermomixer Comfort plate shaker. At 5, 15, 30, 45, 60, 80, 100 and 120 min, mix the incubation system and transfer samples of 20 μL incubated mixture at each time point to wells in a separate “Quenching plate” followed by vortexing. • 10. Centrifuge the quenching plates for 20 minutes at 4,000 rpm. 4 different compounds are pooled into one cassette and used for LC/MS/MS analysis.
All calculations are carried out using Microsoft Excel. Peak areas are determined from extracted ion chromatograms. In vitro intrinsic clearance (in vitro Clint, in μL/min/10^6 cells) of parent compound is determined by regression analysis of the Ln percent parent disappearance vs. time curve. The in vitro intrinsic clearance (in vitro Clint, in μL/min/10^6 cells) is determined from the slope value using the following equation and is shown in Table C:
V=incubation volume (0.25 mL);
N=number of hepatocytes per well (0.25×10 ^6 cells).

For the compound `C[C@@H]1Cc2c(ccc3[nH]ncc23)[C@@](C)(c2c(F)cc(OCCN3CC(CF)C3)cc2F)N1CC(C)(C)F` [Example 2, (6S,8R)-6-(2,6-difluoro-4-(2-(3-(fluoromethyl)azetidin-1-yl)ethoxy)phenyl)-7-(2-fluoro-2-methylpropyl)-6,8-dimethyl-6,7,8,9-tetrahydro-3H-pyrazolo[4,3-f]isoquinoline], the DC50 in data set [1] was determined as 0.088 nM. Also, the hepatocyte CLint at 1 µM in data set [2] came to 8 µL/min/1e6 cells.
For `C[C@@H]1Cc2c(ccc3[nH]ncc23)[C@@](C)(c2ccc(OCCN3CC(CF)C3)cc2)N1CC1(F)CC1` [Example 30, (6R,8R)-7-((1-fluorocyclopropyl)methyl)-6-(4-(2-(3-(fluoromethyl)azetidin-1-yl)ethoxy)phenyl)-6,8-dimethyl-6,7,8,9-tetrahydro-3H-pyrazolo[4,3-f]isoquinoline], the DC50 in data set [1] amounted to 0.087 nM. For the same compound, the hepatocyte CLint at 1 µM in data set [2] was found to be 13 µL/min/1e6 cells.
In the case of `CC(C)CN1[C@H](c2ccc(OCCN3CC(CF)C3)cn2)c2ccc3[nH]ncc3c2C[C@H]1C` [Example 40, (6S,8R)-6-(5-(2-(3-(fluoromethyl)azetidin-1-yl)ethoxy)pyridin-2-yl)-7-isobutyl-8-methyl-6,7,8,9-tetrahydro-3H-pyrazolo[4,3-f]isoquinoline], the DC50 in data set [1] was found to be 0.36 nM. Moreover, the hepatocyte CLint at 1 µM in data set [2] was 8 µL/min/1e6 cells.
For the compound `CC(C)CN1[C@H](c2c(F)cc(OCCN3CC(CF)C3)cc2F)c2ccc3[nH]ncc3c2C[C@H]1C` [Example 33, (6S,8R)-6-(2,6-difluoro-4-(2-(3-(fluoromethyl)azetidin-1-yl)ethoxy)phenyl)-7-isobutyl-8-methyl-6,7,8,9-tetrahydro-3H-pyrazolo[4,3-f]isoquinoline], the DC50 in data set [1] was 0.21 nM. Besides, the hepatocyte CLint at 1 µM in data set [2] was 9 µL/min/1e6 cells.
As to `CC(C)(F)CN1[C@H](C(F)F)Cc2c(ccc3[nH]ncc23)[C@@]1(C)c1c(F)cc(OCCN2CC(CF)C2)cc1F` [Example 4, (6S,8S)-6-(2,6-difluoro-4-(2-(3-(fluoromethyl)azetidin-1-yl)ethoxy)phenyl)-8-(difluoromethyl)-7-(2-fluoro-2-methylpropyl)-6-methyl-6,7,8,9-tetrahydro-3H-pyrazolo[4,3-f]isoquinoline], in data set [1], the DC50 amounted to 0.16 nM and the “% downregulation (in brackets) in ER down regulation assay” value is on record as 80%. Also, the hepatocyte CLint at 1 µM in data set [2] is 10 µL/min/1e6 cells.
Take `C[C@@H]1Cc2c(ccc3[nH]ncc23)[C@@H](c2c(F)cc(OCCN3CC(CF)C3)cc2F)N1CC(C)(C)F` [Example 1, (6S,8R)-6-(2,6-difluoro-4-(2-(3-(fluoromethyl)azetidin-1-yl)ethoxy)phenyl)-7-(2-fluoro-2-methylpropyl)-8-methyl-6,7,8,9-tetrahydro-3H-pyrazolo[4,3-f]isoquinoline]: the DC50 in data set [1] was 0.097 nM. The hepatocyte CLint at 1 µM in data set [2] was found to be 8 µL/min/1e6 cells.
Consider `C[C@@H]1Cc2c(ccc3[nH]ncc23)[C@@H](c2ccc(OCCN3CC(CF)C3)cc2)N1CC1(F)COC1` [Example 31, (6R,8R)-6-(4-(2-(3-(fluoromethyl)azetidin-1-yl)ethoxy)phenyl)-7-((3-fluorooxetan-3-yl)methyl)-8-methyl-6,7,8,9-tetrahydro-3H-pyrazolo[4,3-f]isoquinoline], for which the DC50 in data set [1] was determined as 0.2 nM. Further, in data set [2], the hepatocyte CLint at 1 µM stood at 38 µL/min/1e6 cells.
As for `C[C@@H]1Cc2c(ccc3[nH]ncc23)[C@@H](c2ccc(OCCN3CC(CF)C3)cc2)N1CC1(F)CC1` [Example 29, (6R,8R)-7-((1-fluorocyclopropyl)methyl)-6-(4-(2-(3-(fluoromethyl)azetidin-1-yl)ethoxy)phenyl)-8-methyl-6,7,8,9-tetrahydro-3H-pyrazolo[4,3-f]isoquinoline], the DC50 in data set [1] is 0.35 nM. Moreover, the hepatocyte CLint at 1 µM in data set [2] was found to be 12 µL/min/1e6 cells.
With `C[C@@H]1Cc2c(ccc3[nH]ncc23)[C@@H](c2ccc(OCCN3CC(CF)C3)cn2)N1CC(C)(F)F` [Example 41, (6S,8R)-7-(2,2-difluoropropyl)-6-(5-(2-(3-(fluoromethyl)azetidin-1-yl)ethoxy)pyridin-2-yl)-8-methyl-6,7,8,9-tetrahydro-3H-pyrazolo[4,3-f]isoquinoline], in data set [1], the DC50 is 0.29 nM.
As to `COc1cc(OCCN2CC(C)C2)ccc1[C@@H]1c2ccc3[nH]ncc3c2C[C@@H](C)N1CC(C)(C)F` [Example 23, (6S,8R)-7-(2-fluoro-2-methylpropyl)-6-(2-methoxy-4-(2-(3-methylazetidin-1-yl)ethoxy)phenyl)-8-methyl-6,7,8,9-tetrahydro-3H-pyrazolo[4,3-f]isoquinoline], in data set [1], the DC50 was 0.24 nM and the “% downregulation (in brackets) in ER down regulation assay” value worked out at 67%.
On to `COc1cc(OCCN2CC(CF)C2)ncc1[C@@H]1c2ccc3[nH]ncc3c2C[C@@H](C)N1CC1(F)CC1` [Example 42, (6S,8R)-7-((1-fluorocyclopropyl)methyl)-6-(6-(2-(3-(fluoromethyl)azetidin-1-yl)ethoxy)-4-methoxypyridin-3-yl)-8-methyl-6,7,8,9-tetrahydro-3H-pyrazolo[4,3-f]isoquinoline], for which the DC50 in data set [1] is 0.59 nM.
On the same count and under the same terms, then `C[C@@H]1Cc2c(ccc3[nH]ncc23)[C@@H](c2ncc(OCCN3CC(CF)C3)cc2F)N1CC(F)F` [Example 48, (6S,8R)-7-(2,2-difluoroethyl)-6-(3-fluoro-5-(2-(3-(fluoromethyl)azetidin-1-yl)ethoxy)pyridin-2-yl)-8-methyl-6,7,8,9-tetrahydro-3H-pyrazolo[4,3-f]isoquinoline], with 1.9 nM.
As for `C[C@@H]1Cc2c(ccc3[nH]ncc23)[C@@H](c2ccc(OCCN3CC(CF)C3)cc2C#N)N1CC1(F)CC1` [Example 39, 2-((6S,8R)-7-((1-fluorocyclopropyl)methyl)-8-methyl-6,7,8,9-tetrahydro-3H-pyrazolo[4,3-f]isoquinolin-6-yl)-5-(2-(3-(fluoromethyl)azetidin-1-yl)ethoxy)benzonitrile], in data set [1], the DC50 amounted to 0.17 nM.
